Reference: the NIST ThermoML archive (doi:10.1021/je4000372)
Numbers after ± are expanded uncertainties.

Test: xn = mol fraction of the nth substance listed
Conditions: 101 kPa, Liquid; for viscosity: Capillary tube (Ostwald / Ubbelohde) method; for mass density: Pycnometric method

CCCCOCCOCCO [3,6-dioxa-1-decanol] + NCCO
viscosity (293.15 K, x1 = 0.04025): 23.11 ± 0.73 mPa·s | viscosity (293.15 K, x1 = 0.08607): 21.86 ± 0.69 mPa·s | viscosity (293.15 K, x1 = 0.1392): 20.39 ± 0.64 mPa·s | viscosity (293.15 K, x1 = 0.2008): 18.81 ± 0.59 mPa·s | viscosity (293.15 K, x1 = 0.2732): 17.01 ± 0.54 mPa·s | viscosity (293.15 K, x1 = 0.3602): 15.02 ± 0.47 mPa·s | viscosity (293.15 K, x1 = 0.4111): 13.86 ± 0.44 mPa·s | viscosity (293.15 K, x1 = 0.4671): 12.72 ± 0.4 mPa·s | viscosity (293.15 K, x1 = 0.4977): 12.16 ± 0.38 mPa·s | viscosity (293.15 K, x1 = 0.6007): 10.46 ± 0.33 mPa·s | viscosity (293.15 K, x1 = 0.7204): 8.65 ± 0.27 mPa·s | viscosity (293.15 K, x1 = 0.7699): 8.02 ± 0.25 mPa·s | viscosity (293.15 K, x1 = 0.8163): 7.42 ± 0.23 mPa·s | viscosity (293.15 K, x1 = 0.9331): 6.34 ± 0.2 mPa·s | viscosity (293.15 K, x1 = 1): 5.84 ± 0.18 mPa·s | mass density (293.15 K, x1 = 0.04025): 1010.3 ± 2.1 kg/m3 | mass density (293.15 K, x1 = 0.08607): 1004.5 ± 2.1 kg/m3 | mass density (293.15 K, x1 = 0.1392): 998.5 ± 2.1 kg/m3 | mass density (293.15 K, x1 = 0.2008): 992.5 ± 2.1 kg/m3 | mass density (293.15 K, x1 = 0.2732): 986.4 ± 2.1 kg/m3 | mass density (293.15 K, x1 = 0.3602): 980.2 ± 2.1 kg/m3 | mass density (293.15 K, x1 = 0.4111): 976.9 ± 2.1 kg/m3 | mass density (293.15 K, x1 = 0.4671): 973.8 ± 2.1 kg/m3 | mass density (293.15 K, x1 = 0.4977): 972.1 ± 2.1 kg/m3 | mass density (293.15 K, x1 = 0.6007): 967.1 ± 2.1 kg/m3 | mass density (293.15 K, x1 = 0.7204): 962 ± 2 kg/m3 | mass density (293.15 K, x1 = 0.7699): 960.2 ± 2.1 kg/m3 | mass density (293.15 K, x1 = 0.8163): 958.5 ± 2.1 kg/m3 | mass density (293.15 K, x1 = 0.9331): 954.8 ± 2.1 kg/m3 | mass density (293.15 K, x1 = 1): 952.9 ± 2.1 kg/m3 | viscosity (303.15 K, x1 = 0.04025): 14.27 ± 0.46 mPa·s | viscosity (303.15 K, x1 = 0.08607): 13.61 ± 0.44 mPa·s | viscosity (303.15 K, x1 = 0.1392): 12.86 ± 0.41 mPa·s | viscosity (303.15 K, x1 = 0.2008): 11.99 ± 0.38 mPa·s | viscosity (303.15 K, x1 = 0.2732): 11.01 ± 0.35 mPa·s | viscosity (303.15 K, x1 = 0.3602): 9.83 ± 0.31 mPa·s | viscosity (303.15 K, x1 = 0.4111): 9.16 ± 0.29 mPa·s | viscosity (303.15 K, x1 = 0.4671): 8.51 ± 0.27 mPa·s | viscosity (303.15 K, x1 = 0.4977): 8.17 ± 0.26 mPa·s | viscosity (303.15 K, x1 = 0.6007): 7.18 ± 0.23 mPa·s | viscosity (303.15 K, x1 = 0.7204): 6.21 ± 0.2 mPa·s | viscosity (303.15 K, x1 = 0.7699): 5.82 ± 0.18 mPa·s | viscosity (303.15 K, x1 = 0.8163): 5.47 ± 0.17 mPa·s | viscosity (303.15 K, x1 = 0.9331): 4.62 ± 0.15 mPa·s | viscosity (303.15 K, x1 = 1): 4.23 ± 0.13 mPa·s | mass density (303.15 K, x1 = 0.04025): 1002.5 ± 2.1 kg/m3 | mass density (303.15 K, x1 = 0.08607): 996.6 ± 2.1 kg/m3 | mass density (303.15 K, x1 = 0.1392): 990.5 ± 2.1 kg/m3 | mass density (303.15 K, x1 = 0.2008): 984.2 ± 2.1 kg/m3 | mass density (303.15 K, x1 = 0.2732): 977.9 ± 2.1 kg/m3 | mass density (303.15 K, x1 = 0.3602): 971.5 ± 2.1 kg/m3 | mass density (303.15 K, x1 = 0.4111): 968.2 ± 2.1 kg/m3 | mass density (303.15 K, x1 = 0.4671): 964.9 ± 2.1 kg/m3 | mass density (303.15 K, x1 = 0.4977): 963.3 ± 2.1 kg/m3 | mass density (303.15 K, x1 = 0.6007): 958.1 ± 2 kg/m3 | mass density (303.15 K, x1 = 0.7204): 952.9 ± 2 kg/m3 | mass density (303.15 K, x1 = 0.7699): 951.1 ± 2 kg/m3 | mass density (303.15 K, x1 = 0.8163): 949.3 ± 2 kg/m3 | mass density (303.15 K, x1 = 0.9331): 945.5 ± 2 kg/m3 | mass density (303.15 K, x1 = 1): 943.5 ± 2 kg/m3 | viscosity (313.15 K, x1 = 0.04025): 9.52 ± 0.3 mPa·s | viscosity (313.15 K, x1 = 0.08607): 9.1 ± 0.29 mPa·s | viscosity (313.15 K, x1 = 0.1392): 8.62 ± 0.27 mPa·s | viscosity (313.15 K, x1 = 0.2008): 8.08 ± 0.26 mPa·s | viscosity (313.15 K, x1 = 0.2732): 7.47 ± 0.24 mPa·s | viscosity (313.15 K, x1 = 0.3602): 6.76 ± 0.21 mPa·s | viscosity (313.15 K, x1 = 0.4111): 6.37 ± 0.2 mPa·s | viscosity (313.15 K, x1 = 0.4671): 5.97 ± 0.19 mPa·s | viscosity (313.15 K, x1 = 0.4977): 5.77 ± 0.18 mPa·s | viscosity (313.15 K, x1 = 0.6007): 5.12 ± 0.16 mPa·s | viscosity (313.15 K, x1 = 0.7204): 4.42 ± 0.14 mPa·s | viscosity (313.15 K, x1 = 0.7699): 4.17 ± 0.13 mPa·s | viscosity (313.15 K, x1 = 0.8163): 3.96 ± 0.12 mPa·s | viscosity (313.15 K, x1 = 0.9331): 3.48 ± 0.11 mPa·s | viscosity (313.15 K, x1 = 1): 3.22 ± 0.1 mPa·s | mass density (313.15 K, x1 = 0.04025): 994.3 ± 2.1 kg/m3 | mass density (313.15 K, x1 = 0.08607): 988.5 ± 2.1 kg/m3 | mass density (313.15 K, x1 = 0.1392): 982.5 ± 2.1 kg/m3 | mass density (313.15 K, x1 = 0.2008): 976.4 ± 2.1 kg/m3 | mass density (313.15 K, x1 = 0.2732): 970.1 ± 2.1 kg/m3 | mass density (313.15 K, x1 = 0.3602): 963.7 ± 2.1 kg/m3 | mass density (313.15 K, x1 = 0.4111): 960.4 ± 2 kg/m3 | mass density (313.15 K, x1 = 0.4671): 957.2 ± 2 kg/m3 | mass density (313.15 K, x1 = 0.4977): 955.5 ± 2 kg/m3 | mass density (313.15 K, x1 = 0.6007): 950.3 ± 2 kg/m3 | mass density (313.15 K, x1 = 0.7204): 945.2 ± 2 kg/m3 | mass density (313.15 K, x1 = 0.7699): 943.3 ± 2 kg/m3 | mass density (313.15 K, x1 = 0.8163): 941.6 ± 2 kg/m3 | mass density (313.15 K, x1 = 0.9331): 937.7 ± 2 kg/m3 | mass density (313.15 K, x1 = 1): 935.7 ± 2 kg/m3 | viscosity (323.15 K, x1 = 0.04025): 6.64 ± 0.21 mPa·s | viscosity (323.15 K, x1 = 0.08607): 6.37 ± 0.2 mPa·s | viscosity (323.15 K, x1 = 0.1392): 6.07 ± 0.19 mPa·s | viscosity (323.15 K, x1 = 0.2008): 5.73 ± 0.18 mPa·s | viscosity (323.15 K, x1 = 0.2732): 5.33 ± 0.17 mPa·s | viscosity (323.15 K, x1 = 0.3602): 4.88 ± 0.15 mPa·s | viscosity (323.15 K, x1 = 0.4111): 4.63 ± 0.15 mPa·s | viscosity (323.15 K, x1 = 0.4671): 4.37 ± 0.14 mPa·s | viscosity (323.15 K, x1 = 0.4977): 4.23 ± 0.13 mPa·s | viscosity (323.15 K, x1 = 0.6007): 3.79 ± 0.12 mPa·s | viscosity (323.15 K, x1 = 0.7204): 3.34 ± 0.1 mPa·s | viscosity (323.15 K, x1 = 0.7699): 3.17 ± 0.1 mPa·s | viscosity (323.15 K, x1 = 0.8163): 3.02 ± 0.09 mPa·s | viscosity (323.15 K, x1 = 0.9331): 2.69 ± 0.08 mPa·s | viscosity (323.15 K, x1 = 1): 2.51 ± 0.08 mPa·s | mass density (323.15 K, x1 = 0.04025): 986.2 ± 2.1 kg/m3 | mass density (323.15 K, x1 = 0.08607): 980.4 ± 2.1 kg/m3 | mass density (323.15 K, x1 = 0.1392): 974.3 ± 2.1 kg/m3 | mass density (323.15 K, x1 = 0.2008): 968.1 ± 2.1 kg/m3 | mass density (323.15 K, x1 = 0.2732): 961.7 ± 2.1 kg/m3 | mass density (323.15 K, x1 = 0.3602): 955.1 ± 2 kg/m3 | mass density (323.15 K, x1 = 0.4111): 951.8 ± 2 kg/m3 | mass density (323.15 K, x1 = 0.4671): 948.4 ± 2 kg/m3 | mass density (323.15 K, x1 = 0.4977): 946.7 ± 2 kg/m3 | mass density (323.15 K, x1 = 0.6007): 941.5 ± 2 kg/m3 | mass density (323.15 K, x1 = 0.7204): 936.3 ± 2 kg/m3 | mass density (323.15 K, x1 = 0.7699): 934.4 ± 2 kg/m3 | mass density (323.15 K, x1 = 0.8163): 932.7 ± 2 kg/m3 | mass density (323.15 K, x1 = 0.9331): 928.7 ± 2 kg/m3 | mass density (323.15 K, x1 = 1): 926.6 ± 2 kg/m3 | viscosity (333.15 K, x1 = 0.04025): 4.82 ± 0.15 mPa·s | viscosity (333.15 K, x1 = 0.08607): 4.65 ± 0.15 mPa·s | viscosity (333.15 K, x1 = 0.1392): 4.43 ± 0.14 mPa·s | viscosity (333.15 K, x1 = 0.2008): 4.19 ± 0.13 mPa·s | viscosity (333.15 K, x1 = 0.2732): 3.91 ± 0.12 mPa·s | viscosity (333.15 K, x1 = 0.3602): 3.61 ± 0.11 mPa·s | viscosity (333.15 K, x1 = 0.4111): 3.45 ± 0.11 mPa·s | viscosity (333.15 K, x1 = 0.4671): 3.28 ± 0.1 mPa·s | viscosity (333.15 K, x1 = 0.4977): 3.19 ± 0.1 mPa·s | viscosity (333.15 K, x1 = 0.6007): 2.91 ± 0.09 mPa·s | viscosity (333.15 K, x1 = 0.7204): 2.59 ± 0.08 mPa·s | viscosity (333.15 K, x1 = 0.7699): 2.48 ± 0.08 mPa·s | viscosity (333.15 K, x1 = 0.8163): 2.37 ± 0.07 mPa·s | viscosity (333.15 K, x1 = 0.9331): 2.11 ± 0.07 mPa·s | viscosity (333.15 K, x1 = 1): 2 ± 0.06 mPa·s | mass density (333.15 K, x1 = 0.04025): 978.2 ± 2.1 kg/m3 | mass density (333.15 K, x1 = 0.08607): 972.5 ± 2.1 kg/m3 | mass density (333.15 K, x1 = 0.1392): 966.4 ± 2.1 kg/m3 | mass density (333.15 K, x1 = 0.2008): 960.1 ± 2 kg/m3 | mass density (333.15 K, x1 = 0.2732): 953.7 ± 2 kg/m3 | mass density (333.15 K, x1 = 0.3602): 947.1 ± 2 kg/m3 | mass density (333.15 K, x1 = 0.4111): 943.7 ± 2 kg/m3 | mass density (333.15 K, x1 = 0.4671): 940.4 ± 2 kg/m3 | mass density (333.15 K, x1 = 0.4977): 938.7 ± 2 kg/m3 | mass density (333.15 K, x1 = 0.6007): 933.5 ± 2 kg/m3 | mass density (333.15 K, x1 = 0.7204): 928.3 ± 2 kg/m3 | mass density (333.15 K, x1 = 0.7699): 926.4 ± 2 kg/m3 | mass density (333.15 K, x1 = 0.8163): 924.7 ± 2 kg/m3 | mass density (333.15 K, x1 = 0.9331): 920.7 ± 2 kg/m3 | mass density (333.15 K, x1 = 1): 918.5 ± 2 kg/m3
